Measured values from patent publication US12037324B2, “Biarylmethyl heterocycles” (Université de Montréal, priority 2016, dated 2024).
pEC50: −log10 of the molar value.

Columns and labels:
Type in all cases: cell-based
AGTR1 [1] = molecular target: T1, AGTR1 (Homo sapiens, UniProt P30556); test: DiscoveRx β-arrestin2 recruitment assay (enzyme complementation, Pathunter CHO-K1 AGTR1 β-arrestin cell line); details: DiscoveRx β-arrestin2 recruitment; for DiscoveRx β-arrestin2 Ymax (%): maximal response
T1 construct: host or cells: Pathunter CHO-K1 AGTR1 β-arrestin cell line (CHO-K1)
T1 sequence (P30556 1-359): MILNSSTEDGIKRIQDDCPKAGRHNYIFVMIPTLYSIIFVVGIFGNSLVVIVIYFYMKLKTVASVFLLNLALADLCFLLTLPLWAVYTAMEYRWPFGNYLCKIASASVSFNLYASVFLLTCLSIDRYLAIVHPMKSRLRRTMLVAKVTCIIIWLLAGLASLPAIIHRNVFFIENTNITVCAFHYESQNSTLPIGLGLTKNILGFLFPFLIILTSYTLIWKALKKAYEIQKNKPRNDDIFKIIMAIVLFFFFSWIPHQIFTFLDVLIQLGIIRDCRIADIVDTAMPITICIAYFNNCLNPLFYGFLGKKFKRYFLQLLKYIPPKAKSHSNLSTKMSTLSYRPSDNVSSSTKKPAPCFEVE
Protocol: In one aspect of the invention, signaling bias of compounds was assessed by comparing the relative activity of compounds to activate both the β-arrestin and Gq signaling pathways. In order to confirm signaling bias, compounds were studied in two different assay formats. DiscoveRx β-arrestin2 Recruitment and IP1 Assays β-arrestin2 recruitment to activated receptors can be assessed using an enzyme complementation method (Zhao, Jones et al. 2008). […] Cells (5000/well) were plated into 1536 well plates (Cellocoat plates, Greiner Bio One, Monroe, NC) 14-16 hours before each experiment in 20 μl DMEM/F12 medium (Thermo-Fisher Scientific, Carlsbad, CA) containing heat-inactivated 1% fetal bovine serum. Subsequently, the compounds of interest were added at varying concentrations to the wells in a volume of 200 nl and the cells incubated for 90 min at 37° C. The detection reagent (10 μl) was added to each well and the plates incubated at room temperature for 1 hour before measurement of chemiluminescence using an EnVision Multilabel Reader (Perkin-Elmer, Waltham, MA). The data are processed using Toolset for Runmaster QCMulti. Concentration-response curves are fitted and EC50s (agonist mode) and IC50s (antagonist mode) estimated using a 4-parameter logistic equation. Compound activities are reported as a relative percentage to the maximal effect of All in the assays.

AGTR1 [2] = molecular target: T1, AGTR1; test: DiscoveRx IP1 accumulation assay (HTRF), agonist mode, Pathunter CHO-K1 AGTR1 β-arrestin cell line; details: for pEC50: read-out: IP-1 EC50
Protocol: In one aspect of the invention, signaling bias of compounds was assessed by comparing the relative activity of compounds to activate both the β-arrestin and Gq signaling pathways. In order to confirm signaling bias, compounds were studied in two different assay formats.
DiscoveRx β-arrestin2 Recruitment and IP1 Assays
Gq activation can be assessed by measuring the accumulation of inositol phosphates (e.g. IP3, IP1) that are liberated following activation of phospholipase C by Gq (Thomsen, Frazer et al. 2005). In the current invention we have utilized the DiscoveRx Pathunter CHO-K1 AGTR1 β-arrestin cell line to also measure IP1 accumulation in response to compounds. IP1 accumulation was measured in both agonist and antagonist modes. In agonist mode, cells are plated as above 14-16 hours before the experiment. The medium is then removed and compounds at varying concentrations added in a final volume of 20 μl. The cells are incubated at 37° C. for 90 min. IP1 accumulation detected using a commercial HTRF assay according to manufacturer's instructions (Cisbio, Bedford, MA). Specifically, 4 μl of D2-conjugate solution (diluted 1:20 in Cisbio HTRF assay buffer) is added to each well, followed by the addition of 4 μl of anti-IP1 cryptate diluted 1:20 in HTRF assay buffer and the plates incubated for 20 min at room temperature. 14 μl from each well is measured using an Envision multi-label reader and data processed using Toolset for Runmaster QCMulti. Concentration-response curves are fitted and EC50s (agonist mode) and IC50s (antagonist mode) estimated using a 4-parameter logistic equation. Compound activities are reported as a relative percentage to the maximal effect of All in the assays.

hAT1R = molecular target: T2, hAT1R (Homo sapiens, UniProt P30556); test: BRET β-arrestin2 biosensor assay, higher receptor expression (hAT1R 5 ng/well), HEK293 cells; details: for pEC50: High AT1R Expression
T2 sequence (P30556 1-359): T1 sequence (P30556 1-359)

| SMILES | pEC50 (AGTR1 [1]) | DiscoveRx β-arrestin2 Ymax (%) (AGTR1 [1]) | IP-1 Ymax (%) (AGTR1 [2]) | pEC50 (AGTR1 [2]) | BRET β-Arrestin2 High AT1R Expression Ymax (%) (hAT1R) | pEC50 (hAT1R) |
| --- | --- | --- | --- | --- | --- | --- |
| CCCCC1=NC2(CCCC2)C(=O)N1Cc1ccc(-c2cc(-c3ccc(OC(F)(F)F)cc3)ccc2-c2nn[nH]n2)cc1 [Example 134] | 7.13 | 40.3 | 4.0 | 6.99 | 77.0 | 6.80 |
| CCCCOC(=O)NS(=O)(=O)c1sc(-c2ccccc2C(F)(F)F)cc1-c1ccc(Cn2c(CC)nc3c(C)cc(C)nc32)cn1 [Example 46, Butyl (3-(5-((2-ethyl-5,7-dimethyl-3H-imidazo[4,5-b]pyridin-3-yl)methyl)pyridin-2-yl)-5-(2-(trifluoromethyl)phenyl)thiophen-2-yl)sulfonylcarbamate] | 7.49 | 45.1 | 15.4 | 6.45 | 84.8 | 7.88 |
| CCCCC1=NC2(CCCC2)C(=O)N1Cc1ccc(-c2cc(N3CCCC(C)(C)C3)ccc2-c2nn[nH]n2)cc1 [Example 102] | 7.35 | 41.0 | 3.8 | 6.14 | 71.6 | 7.00 |
| CCc1nc2c(C)cc(C)nc2n1Cc1ccc(-c2cc(-c3ccc(C)cc3)ccc2-c2nn[nH]n2)cc1 [Example 18] | 6.85 | 54.2 | 15.4 | 6.30 |  |  |
| CCCCC1=NC2(CCCC2)C(=O)N1Cc1ccc(-c2cc(-c3cncc(OC)c3)ccc2-c2nn[nH]n2)cc1 [Example 132] | 7.06 | 14.1 |  |  | 22.0 | 6.30 |
| CCc1nc2c(C)cc(C)nc2n1Cc1ccc(-c2cc(C3CCCO3)ccc2-c2nn[nH]n2)cc1 (single isomer, unassigned) [Example 73, 2-ethyl-5,7-dimethyl-3-((5′-(tetrahydrofuran-2-yl)-2′-(2H-tetrazol-5-yl)-[1,1′-biphenyl]-4-yl)methyl)-3H-imidazo[4,5-b]pyridine] | 6.97 | 26.4 | 11.6 | 5.23 |  |  |
| CCc1nc2c(C)cc(C)nc2n1Cc1ccc(-c2cc(-c3ccc(N(C)C)cc3)ccc2-c2nn[nH]n2)cc1 [Example 15] | 7.65 | 14.9 | 2.4 | 7.66 |  |  |
| CCc1nc2c(C)cc(C)nc2n1Cc1ccc(-c2cc(Nc3ccc(F)cc3)ccc2-c2nn[nH]n2)cc1 [Example 26, 4′-((2-ethyl-5,7-dimethyl-3H-imidazo[4,5-b]pyridin-3-yl)methyl)-N-(4-fluorophenyl)-6-(2H-tetrazol-5-yl)-[1,1′-biphenyl]-3-amine] | 7.97 | 25.0 | 7.5 | 7.62 |  |  |
| CCCCc1nc(Cl)c(C(=O)O)n1Cc1ccc(-c2cc(N3CCc4ccccc43)ccc2-c2noc(=O)[nH]2)cc1 [Example 406, 2-butyl-4-chloro-1-((5′-(indolin-1-yl)-2′-(5-oxo-4,5-dihydro-1,2,4-oxadiazol-3-yl)-[1,1′-biphenyl]-4-yl)methyl)-1H-imidazole-5-carboxylic acid] | 8.05 | 33.9 |  |  | 97.5 | 7.97 |
| CCc1nc2c(C)cc(C)nc2n1Cc1ccc(-c2cc(-c3ccc4c(ccn4C)c3)ccc2-c2nn[nH]n2)cc1 [Example 17] | 7.80 | 11.9 | 3.3 | 8.06 |  |  |
| CCc1nc2c(C)cc(C)nc2n1Cc1ccc(-c2cc(C3CCCCN3)ccc2-c2nn[nH]n2)cc1 (single isomer, unassigned) [Example 76, 2-ethyl-5,7-dimethyl-3-((5′-(piperidin-2-yl)-2′-(2H-tetrazol-5-yl)-[1,1′-biphenyl]-4-yl)methyl)-3H-imidazo[4,5-b]pyridine] | 6.08 | 13.2 |  | < 4.00 |  |  |

Second part, led by results:

| pEC50 (AGTR1 [1]) | DiscoveRx β-arrestin2 Ymax (%) (AGTR1 [1]) | IP-1 Ymax (%) (AGTR1 [2]) | pEC50 (AGTR1 [2]) | SMILES | BRET β-Arrestin2 High AT1R Expression Ymax (%) (hAT1R) | pEC50 (hAT1R) |
| --- | --- | --- | --- | --- | --- | --- |
| 8.03 | 44.9 | 6.8 | 7.57 | CCc1nc2c(C)cc(C)nc2n1Cc1ccc(-c2cc(-c3ccsc3)ccc2-c2nn[nH]n2)cc1 [Example 55] |  |  |
| 7.37 | 38.8 | 12.8 | 6.66 | CCCCC1=NC2(CCCC2)C(=O)N1Cc1ccc(-c2cc(N3CC4(CC4)c4ccccc43)ccc2-c2nn[nH]n2)cc1 [Example 108] |  |  |
| 6.72 | 41.6 | 8.6 | 6.67 | CCCC1=NC2(CCOC2)C(=O)N1Cc1ccc(-c2cc(-c3ccccc3)ccc2-c2nn[nH]n2)cc1 (single isomer, unassigned) [Example 158, 3-((6′-(2H-tetrazol-5-yl)-[1,1′:3′,1″-terphenyl]-4-yl)methyl)-2-propyl-7-oxa-1,3-diazaspiro[4.4]non-1-en-4-one] |  |  |
| 7.31 | 22.5 |  | < 4.00 | CCc1nc2c(C)cc(C)nc2n1Cc1ccc(-c2cc(N3CC[C@H](C)C3)ccc2-c2nn[nH]n2)cc1 [Example 89] |  |  |
| 6.95 | 8.8 |  | < 4.00 | CCCCC1=NC2(CCCC2)C(=O)N1Cc1ccc(-c2cc(N3CCC(C)C3)ccc2-c2nn[nH]n2)cc1 (centres unmarked) [Example 103] |  |  |
| 6.46 | 7.0 | 5.6 | 6.34 | CCc1nc2c(C)cc(C)nc2n1Cc1ccc(-c2cc(-c3ccccc3)ccc2C(=O)O)nc1 [Example 201, 3-(5-((2-ethyl-5,7-dimethyl-3H-imidazo[4,5-b]pyridin-3-yl)methyl)pyridin-2-yl)biphenyl-4-carboxylic acid] |  |  |
| 6.80 | 38.0 |  | < 4.00 | CCc1nc2c(C)cc(C)nc2n1Cc1ccc(-c2cc(N3CCC[C@@H](C)C3)ccc2-c2nn[nH]n2)cc1 [Example 86] |  |  |
| 8.01 | 22.1 | 4.5 | 7.58 | CCCCC1=NC2(CCCC2)C(=O)N1Cc1ccc(-c2cc(-c3ccccn3)ccc2-c2nn[nH]n2)cc1 [Example 140] |  |  |
| 6.86 | 21.0 | 6.3 | 6.60 | CCc1nc2c(C)cc(C)nc2n1Cc1ccc(-c2cc(N3CCCCCC3)ccc2-c2nn[nH]n2)cc1 [Example 95, 3-((5′-(azepan-1-yl)-2′-(2H-tetrazol-5-yl)-[1,1′-biphenyl]-4-yl)methyl)-2-ethyl-5,7-dimethyl-3H-imidazo[4,5-b]pyridine] |  |  |
| 7.52 | 21.4 |  | < 4.00 | CCCCC1=NC2(CCCC2)C(=O)N1Cc1ccc(-c2cc(N3CCC(C)(C)CC3)ccc2-c2nn[nH]n2)cc1 [Example 101] |  |  |
| 6.49 | 11.9 | 2.3 | 5.42 | CCc1nc2c(C)cc(C)nc2n1Cc1ccc(-c2cc(N3CCCC3=O)ccc2-c2nn[nH]n2)cc1 [Example 28, 1-(4′-((2-ethyl-5,7-dimethyl-3H-imidazo[4,5-b]pyridin-3-yl)methyl)-6-(2H-tetrazol-5-yl)-[1,1′-biphenyl]-3-yl)pyrrolidin-2-one] |  |  |
| 8.09 | 22.1 |  | < 4.00 | CCc1nc2c(C)cc(C)nc2n1Cc1ccc(-c2cc(N3CCC[C@H](C)C3)ccc2-c2nn[nH]n2)cc1 [Example 88] |  |  |
